Test results: patent publication US10591485B2, “Peptide tags for fluorescent labelling of proteins” (UNIVERSITY OF OTTAWA, priority 2015, dated 2020)
Entries after “also recorded” stand apart in the source; their conditions may differ. Where a SMILES comes first, the peptide text is derived from it.

How the values were obtained:
[1] = Fluorogenic addition reaction kinetics of MBP-dC10 libraries I, II and III with dansyl-dM10 fluorogen 1, plate reader, 28° C.; format: biochemical; details: for reactivity of single mutants A17X (second order rate constant), in words: fluorogen 1, 50 μM equimolar, pH 7.5, 28° C., FIGS. 6 and 7; for increase in reactivity towards a dimaleimide fluorogen, triple mutants: fluorogen 1, relative to parent dC10, FIG. 10
Experimental: Library I with point mutants at position A17 is represented in dark grey, library II with double mutants A16-A17 is represented in light grey, and library III with triple mutants A3-A16-A17 is represented in black. The rate constant for parent MBP-dC10 is represented in white. All measurements were performed at least in duplicate. The reactivity of each single mutant of MBP-dC10 was evaluated through their reaction with dansyl-dM10 fluorogen 1 (Caron, K. et al., Org. Biomol. Chem., 9: 185-197, 2011), commonly used for test purposes. Equimolar concentrations of 50 μM of fluorogen 1 and MBP-dC10 variant were used in pH 7.5 buffer HEPES 50 mM, supplemented with 1 mM of TCEP reducing agent to reduce disulfide bonds that could form during protein purification or storage. […] Progress curves of the fluorogenic addition reaction were acquired with a plate reader that allowed us to study a large number of samples at the same time. Since the dansyl fluorophore is sensitive to its environment, the reaction of each MBP-dC10 variant led to an end point of slightly different fluorescence intensity. We used a simple second order kinetic model A+B→C where reactants A and B were used in equimolar concentrations. The product C is the only fluorescent species in the milieu and its appearance can be directly followed by increase of fluorescence. Use of this model implies that the second thiol addition is extremely fast due to its intramolecular character, and that the second order kinetic constant k2 depends exclusively on the first thiol addition. This reasonable approximation allowed us to evaluate very simply the overall dC10 reactivity modulated by the presence of stabilizing residues in the proximity of cysteines C6 and C13. Reactivity of each MBP-dC10 variant was assessed by determining the second order rate constant of the fluorogenic labelling reaction with a dansyl-dimaleimide fluorogenic molecule, referred to as dansyl-dM10 1 (FIG. 11). […] Biomol. Chem. 9: 185-197, 2011). Initial kinetic studies performed on MBP-dC10 histidine mutants S2H, R9H, A7H and S2H-A17H were done at the scale of 500 μL in the established conditions described below, using a Cary Eclipse Fluorimeter (Varian, Inc., Mississauga, Ontario, Canada) at 20° C. […] Libraries I, II and III were assayed using a plate reader: briefly, in a reaction scale of 200 μL, 50 μM MBP-dC10 (or variants) and 50 μM dansyl-dM10 1 were mixed in HEPES 50 mM pH 7.5 buffer in the presence of TCEP 1 mM. Fluorescence increase was followed at 28° C. long after completion of the reaction (2 hours) using the Synergy™ H4 Hybrid Multi-Mode Microplate Reader (BioTek, Winooski, Vt., United States) plate reader at 515 nm, upon excitation at 330 nm of the dansyl fluorophore of 1. Second order reaction constants were determined using the initial slope and the final plateau of each kinetic curve. All reactions were performed in duplicate to quadruplicate. For pH dependent kinetics, MBP-dC10 variants were dialysed into a buffer of desired pH, containing 50 mM of buffering salt (pH 7.50-8.00: HEPES; pH 8.25-8.75: Tris-HCl; pH 9.00: CHES) and 1 mM TCEP, overnight at 4° C., with gentle stirring. Fluorogenic reactions were performed in a plate reader as described above, in duplicate.

[2] = Kinetics of addition of fluorogen 1 to MBP-dC10 histidine mutants, Cary Eclipse fluorimeter, 20° C.; format: biochemical; details: fluorogen 1, 20° C., FIG. 4
Experimental: To start, we used fluorogen 1.
Reactivity of each MBP-dC10 variant was assessed by determining the second order rate constant of the fluorogenic labelling reaction with a dansyl-dimaleimide fluorogenic molecule, referred to as dansyl-dM10 1 (FIG. 11). Dansyl-dM10 was synthesized as described (Caron, K. et al., Org. Biomol. Chem. 9: 185-197, 2011). Initial kinetic studies performed on MBP-dC10 histidine mutants S2H, R9H, A7H and S2H-A17H were done at the scale of 500 μL in the established conditions described below, using a Cary Eclipse Fluorimeter (Varian, Inc., Mississauga, Ontario, Canada) at 20° C.

[3] = In vitro reactivity of dC10 and dC10* with fluorogen 3; format: biochemical; details: fluorogen 3, 50 μM equimolar, 28° C., FIG. 13
Experimental: (§1) Second order rate constant ratios are shown for fluorogen 3 (grey), and fluorogen 4 (black). Ratios were obtained by normalizing all rate constants to the rate constant of parent MBP-dC10. Absolute values of second order rate constants in M^−1min^−1 are shown for each fluorogen and dC10 or dC10*, and were obtained using equimolar concentration of 50 μM of fluorogen and test protein, at 28° C. Results were obtained at least in duplicate.
(§2) To extend the results shown above with fluorogens 1 and 2, we tested whether the labelling of dC10* (dC10-A3KA16RA17K) with other coumarin fluorogens would also show a kinetic advantage compared to dC10.

[4] = In vitro reactivity of dC10 and dC10* with fluorogen 4; format: biochemical; details: fluorogen 4, 50 μM equimolar, 28° C., FIG. 13
Experimental: as §1, §2

[5] = pH-rate profile of MBP-dC10 mutants with dansyl-dimaleimide fluorogen, pH 7.50-9.00; format: physicochemical; details: from horizontal displacement of best fit lines of pH-rate profile, FIG. 8
From the text: A pH range between 7.50 and 9.00 was explored to determine the dependence of the second order rate constant on pH. Only several mutants from libraries II and III were chosen for this pH study: Triple mutants containing lysine and arginine (black line), triple mutants containing histidine and lysine or arginine (light grey line), double mutants (dark grey line) and parent dC10 (dashed line).
Considering the relative reactivity of the members of all three mutant libraries, additional studies were undertaken to attempt to quantify the effect of positively charged residues on the acidity of the cysteine residue thiol groups. […]
Libraries I, II and III were assayed using a plate reader: briefly, in a reaction scale of 200 μL, 50 μM MBP-dC10 (or variants) and 50 μM dansyl-dM10 1 were mixed in HEPES 50 mM pH 7.5 buffer in the presence of TCEP 1 mM. Fluorescence increase was followed at 28° C. long after completion of the reaction (2 hours) using the Synergy™ H4 Hybrid Multi-Mode Microplate Reader (BioTek, Winooski, Vt., United States) plate reader at 515 nm, upon excitation at 330 nm of the dansyl fluorophore of 1. Second order reaction constants were determined using the initial slope and the final plateau of each kinetic curve. […] Fluorogenic reactions were performed in a plate reader as described above, in duplicate.

Which “reactivity of single mutants A17X (second order rate constant), in words” value [1] does the source give for “L1SAAECAAREAACREAHARAGGK23 (LSAAECAAREAACREAHARAGGK) [dC10-A17H]” here?
The value was “reacts faster than the parent dC10 peptide tag; also recorded: does not react as fast as the A17K mutant”.

With “L1HAAECAAREAACREAHARAGGK23 (LHAAECAAREAACREAHARAGGK) [dC10-S2HA17H]” as the molecule, how does the “reactivity (second order kinetic constant) compared with parent dC10” value (from here on “reactivity … compared with parent dC10”) [2] read?
The value was “more reactive than the parent dC10”.

For “L1SAAECHAREAACREAAARAGGK23 (LSAAECHAREAACREAAARAGGK) [dC10-A7H]”, which “reactivity … compared with parent dC10” value [2] is on record?
The value was “did not appear to be more reactive than dC10”.

Which “increase in reactivity towards a dimaleimide fluorogen, triple mutants” value (“increase” below) [1] does the source give for “L1SKAECAAREAACREKKARAGGK23 (LSKAECAAREAACREKKARAGGK) [dC10-A3KA16KA17K]” here?
The value was roughly 10 fold.

Which “reactivity … compared with parent dC10” value [2] does the source give for “L1HAAECAAREAACREAAARAGGK23 (LHAAECAAREAACREAAARAGGK) [dC10-S2H]” here?
The value was “did not appear to be more reactive than dC10”.

With “L1SRAECAAREAACRERKARAGGK23 (LSRAECAAREAACRERKARAGGK) [dC10-A3RA16RA17K]” as the molecule, how does the “increase” value [1] read?
Its value is roughly 10 fold.

For “L1SAAECAAREAACREAKARAGGK23 (LSAAECAAREAACREAKARAGGK) [dC10-A17K]”, which “reactivity of single mutants A17X (second order rate constant), in words” value [1] is on record?
Its value is “best dC10 single mutant”.

Which “increase” value [1] does the source give for “L1SRAECAAREAACREKKARAGGK23 (LSRAECAAREAACREKKARAGGK) [dC10-A3RA16KA17K]” here?
Its value is roughly 10 fold.

Which “reactivity compared among double mutants A16X-A17K” value ([1]; fluorogen 1, FIG. 10) does the source give for “L1SAAECAAREAACREHKARAGGK23 (LSAAECAAREAACREHKARAGGK) [dC10-A16HA17K]” here?
Its value is “not as reactive as double mutants A16K-A17K and A16R-A17K”.

For “L1SAAECAAREAACREAAARAGGK23 (LSAAECAAREAACREAAARAGGK) [dC10, previously described parent dicysteine alpha-helical peptide tag]”, which “rate enhancement compared to dC10” value [3] is on record?
Its value is 4 fold.

What about the “rate enhancement compared to dC10” value [4] of the same molecule?
Its value is 2 fold.

Which “pKa lower than that of the parent dC10 sequence” value [5] does the source give for `CC(C)C[C@H](N)C(=O)N[C@@H](CO)C(=O)N[C@@H](CCCCN)C(=O)N[C@@H](C)C(=O)N[C@@H](CCC(=O)O)C(=O)N[C@@H](CS)C(=O)N[C@@H](C)C(=O)N[C@@H](C)C(=O)N[C@@H](CCCNC(=N)N)C(=O)N[C@@H](CCC(=O)O)C(=O)N[C@@H](C)C(=O)N[C@@H](C)C(=O)N[C@@H](CS)C(=O)N[C@@H](CCCNC(=N)N)C(=O)N[C@@H](CCC(=O)O)C(=O)N[C@@H](CCCNC(=N)N)C(=O)N[C@@H](CCCCN)C(=O)N[C@@H](C)C(=O)N[C@@H](CCCNC(=N)N)C(=O)N[C@@H](C)C(=O)NCC(=O)NCC(=O)N[C@@H](CCCCN)C(=O)O` [dC10-A3KA16RA17K] (H-LSKAECAAREAACRERKARAGGK-OH; N-terminus and C-terminus assumed) here?
Its value is 0.70 units.

With “L1SAAECAAHEAACREAAARAGGK23 (LSAAECAAHEAACREAAARAGGK) [dC10-R9H]” as the molecule, how does the “reactivity … compared with parent dC10” value [2] read?
Its value is “did not appear to be more reactive than dC10”.
